Test results from patent US20060263802A1 (priority 2003, published 2006).

Legend:
Type in all cases: binding
[1] = system: human monoclonal antibody CRJA
[2] = system: human monoclonal antibody CRJA; remark: listed apart in the source
[3] = system: human monoclonal antibody CR57
[4] = system: human monoclonal antibody CRJB
[5] = system: human monoclonal antibody CRJB; remark: listed apart in the source
[6] = system: human monoclonal antibody CR57; remark: listed apart in the source

Sequence	Binding of CRJA to linear peptide (PEPSCAN-ELISA signal) [1]	Binding of CRJA (10 μg/ml) to looped/cyclic peptide (PEPSCAN-ELISA signal) [2]	Binding of CR57 (10 μg/ml) to looped/cyclic peptide (PEPSCAN-ELISA signal) [3]	Binding of CRJB to linear peptide (PEPSCAN-ELISA signal) [4]	Binding of CRJB (10 μg/ml) to looped/cyclic peptide (PEPSCAN-ELISA signal) [5]	Binding of CR57 to linear peptide (PEPSCAN-ELISA signal) [6]	Binding of CRJA (10 μg/ml) to looped/cyclic peptide (PEPSCAN-ELISA) [2]	Binding of CR57 (10 μg/ml) to looped/cyclic peptide (PEPSCAN-ELISA) [3]	Binding of CRJB (10 μg/ml) to looped/cyclic peptide (PEPSCAN-ELISA) [5]	binding of antibody CR57 to looped/cyclic peptide (PEPSCAN OD) [3]
IFTNSRGKRASKGSE	97	88	85	125	75	77	–	–	–	–
IHHLSCPNNLVVEDE	79	76	46	85	71	37	–	–	–	–
IILGPDGNVLIPEMQ	80	–	–	118	–	85	107	99	83	–
IISPSVADLDPYDRS	98	106	115	125	93	83	–	–	–	–
IKMNGFTCTGVVTEA	88	99	93	108	86	68	–	–	–	–
ILAIKMNGFTCTGVV	87	45	77	103	72	79	–	–	–	–
ILDKLGPWSPIDIHH	56	71	80	104	46	54	–	–	–	–
ILGPDGNVLIPEMQS	90	–	–	134	–	125	100	143	92	–
ILPSKGCLRVGGRCH	112	–	–	113	–	79	97	105	91	–
IMTTKSVSFRRLSHL	85	–	–	101	–	43	63	74	42	–
IPEMQSSLLQQHMEL	60	–	–	128	–	89	54	66	83	–
IPLVHPLADPSTVFK	130	–	–	156	–	96	106	99	107	–
ISPSVADLDPYDRSL	56	46	66	119	64	50	–	–	–	–
IWMPENPRLGMSCDI	87	152	329	110	156	98	–	–	–	clearly bound
